Measurements published in ChEMBL document CHEMBL1132518, “Symmetrical anhydride-type serine protease inhibitors: structure-activity relationship studies of human chymase inhibitors” (Bioorg Med Chem Lett, 1999).

Key:
Cathepsin G = molecular target: T1, Cathepsin G (Homo sapiens, UniProt P08311); test: Inhibitory activity against human leukocyte cathepsin G (h-CG)
T1 sequence (P08311 whole entry): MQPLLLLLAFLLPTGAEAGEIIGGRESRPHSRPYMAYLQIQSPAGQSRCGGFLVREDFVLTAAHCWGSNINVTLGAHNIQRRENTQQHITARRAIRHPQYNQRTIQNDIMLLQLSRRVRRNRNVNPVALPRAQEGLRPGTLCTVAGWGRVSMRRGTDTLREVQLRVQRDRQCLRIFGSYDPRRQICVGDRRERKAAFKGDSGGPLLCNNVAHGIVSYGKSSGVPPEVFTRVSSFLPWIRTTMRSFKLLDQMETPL

Chymase = molecular target: T2, Chymase (Homo sapiens, UniProt P23946); test: Inhibitory activity against human chymase (h-chymase)
T2 sequence (P23946 whole entry): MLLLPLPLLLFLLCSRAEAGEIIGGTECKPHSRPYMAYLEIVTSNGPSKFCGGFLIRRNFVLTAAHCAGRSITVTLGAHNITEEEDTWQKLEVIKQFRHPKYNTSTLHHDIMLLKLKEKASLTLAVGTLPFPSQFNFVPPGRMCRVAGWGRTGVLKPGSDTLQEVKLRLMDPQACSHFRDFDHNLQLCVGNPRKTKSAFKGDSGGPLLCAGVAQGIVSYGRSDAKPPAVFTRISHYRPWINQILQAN

| SMILES | IC50 (Cathepsin G) [µM] | IC50 (Chymase) [µM] |
| --- | --- | --- |
| O=C(CCNC(=O)c1ccccc1)OC(=O)CCNC(=O)c1ccccc1 | 3.1 | 40 |
| CCCCC(NC(=O)c1ccccc1)C(C)(C)C(=O)OC(=O)C(C)(C)C(CCCC)NC(=O)c1ccccc1 (stereo unspecified) | – | 0.005 |
| CC(C)(C(=O)OC(=O)C(C)(C)C(NC(=O)c1ccc(C#N)cc1)c1ccccc1)C(NC(=O)c1ccc(C#N)cc1)c1ccccc1 (stereo unspecified) | – | 13 |
| CC(C)(C(=O)OC(=O)C(C)(C)C(CCc1ccccc1)NC(=O)c1ccccc1)C(CCc1ccccc1)NC(=O)c1ccccc1 (stereo in doubt; 9) | – | 0.02 |
| CC(C)(C(=O)OC(=O)C(C)(C)C(NC(=O)c1ccc(C#N)cc1)C1CC=CCC1)C(NC(=O)c1ccc(C#N)cc1)C1CC=CCC1 (stereo unspecified) | 0.069 | 0.13 |
| CCCC(NC(=O)c1ccccc1)C(C)(C)C(=O)OC(=O)C(C)(C)C(CCC)NC(=O)c1ccccc1 (stereo unspecified) | – | 0.058 |
| CC(C)(C(=O)OC(=O)C(C)(C)C(NC(=O)c1ccc(C#N)cc1)c1ccccc1Cl)C(NC(=O)c1ccc(C#N)cc1)c1ccccc1Cl (stereo unspecified) | – | 47 |
| Cc1ccccc1C(NC(=O)c1ccc(C#N)cc1)C(C)(C)C(=O)OC(=O)C(C)(C)C(NC(=O)c1ccc(C#N)cc1)c1ccccc1C (stereo unspecified) | – | 8.7 |
| O=C(CC(CCc1ccccc1)NC(=O)c1ccccc1)OC(=O)CC(CCc1ccccc1)NC(=O)c1ccccc1 (stereo unspecified) | – | > 1000 |
| CCCC(=O)NC(CCc1ccccc1)C(C)(C)C(=O)OC(=O)C(C)(C)C(CCc1ccccc1)NC(=O)CCC (stereo in doubt; 9 (-)) | – | 0.0056 |
| CC(C)(C(=O)OC(=O)C(C)(C)C(CCc1ccccc1)NC(=O)c1ccc(C#N)cc1)C(CCc1ccccc1)NC(=O)c1ccc(C#N)cc1 (stereo unspecified) | – | 0.27 |
| CCCCCC(NC(=O)CCC)C(C)(C)C(=O)OC(=O)C(C)(C)C(CCCCC)NC(=O)CCC (stereo unspecified) | 1.6 | 29 |
| CCC(NC(=O)c1ccccc1)C(C)(C)C(=O)OC(=O)C(C)(C)C(CC)NC(=O)c1ccccc1 (stereo unspecified) | – | 0.037 |
| CCCCCCC(NC(=O)c1ccccc1)C(C)(C)C(=O)OC(=O)C(C)(C)C(CCCCCC)NC(=O)c1ccccc1 (stereo unspecified) | – | 0.032 |
| CC(C)(C(=O)OC(=O)C(C)(C)C(CCc1ccccc1)NC(=O)c1ccccc1)C(CCc1ccccc1)NC(=O)c1ccccc1 (single isomer, unassigned; (+)) | – | 0.091 |
| CC(C)(CNC(=O)c1ccccc1)C(=O)OC(=O)C(C)(C)CNC(=O)c1ccccc1 | – | 3 |
| CCCC(=O)NC(CCc1ccccc1)C(C)(C)C(=O)OC(=O)C(C)(C)C(CCc1ccccc1)NC(=O)CCC (stereo in doubt; 15) | – | 2.6 |
| CCCCCC(NC(=O)c1ccccc1)C(C)(C)C(=O)OC(=O)C(C)(C)C(CCCCC)NC(=O)c1ccccc1 (stereo unspecified) | – | 0.013 |
